According to PubChem BioAssay (NCI):
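At the GI50, growth is halved. Definition used: TGI = concentration required for complete inhibition of growth.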

Assays:
Experiment in all cases: NCI tumour cell line growth inhibition, 384-well format
[1] = test system: 786-0 renal
[2] = test system: A498 renal
[3] = test system: A549 NSCLC
[4] = test system: ACHN renal
[5] = test system: BT-549 breast
[6] = test system: CAKI-1 renal
[7] = test system: CCRF-CEM leukemia
[8] = test system: COLO 205 colon
[9] = test system: DU-145 prostate
[10] = test system: EKVX NSCLC
[11] = test system: HCC-2998 colon
[12] = test system: HCT-116 colon
[13] = test system: HCT-15 colon
[14] = test system: HL-60(TB) leukemia
[15] = test system: HOP-62 NSCLC
[16] = test system: HOP-92 NSCLC
[17] = test system: HS 578T breast
[18] = test system: HT29 colon
[19] = test system: IGROV1 ovarian
[20] = test system: K-562 leukemia
[21] = test system: KM12 colon
[22] = test system: LOX IMVI melanoma
[23] = test system: M14 melanoma
[24] = test system: MALME-3M melanoma
[25] = test system: MCF7 breast
[26] = test system: MDA-MB-231 breast
[27] = test system: MDA-MB-435 melanoma
[28] = test system: MDA-MB-468 breast
[29] = test system: MOLT-4 leukemia
[30] = test system: NCI-H226 lung
[31] = test system: NCI-H23 lung
[32] = test system: NCI-H322M lung
[33] = test system: NCI-H460 NSCLC
[34] = test system: NCI-H522 lung
[35] = test system: NCI/ADR-RES ovarian
[36] = test system: OVCAR-3 ovarian
[37] = test system: OVCAR-4 ovarian
[38] = test system: OVCAR-5 ovarian
[39] = test system: OVCAR-8 ovarian
[40] = test system: PC-3 prostate
[41] = test system: RPMI-8226 leukemia
[42] = test system: RXF 393 renal
[43] = test system: SF-268 CNS
[44] = test system: SF-295 CNS
[45] = test system: SF-539 CNS
[46] = test system: SK-MEL-28 melanoma
[47] = test system: SK-MEL-5 melanoma
[48] = test system: SK-OV-3 ovarian
[49] = test system: SN12C renal
[50] = test system: SNB-19 CNS
[51] = test system: SNB-75 CNS
[52] = test system: SR leukemia
[53] = test system: SW-620 colon
[54] = test system: T-47D breast
[55] = test system: TK-10 renal
[56] = test system: U251 glioblastoma
[57] = test system: UACC-257 melanoma
[58] = test system: UO-31 renal

## CN1CCN(c2ccc3nc(-c4c(N)c5c(F)cccc5[nH]c4=O)[nH]c3c2)CC1
[1]
  GI50: 1070 nM
  TGI: 2300 nM
[2]
  GI50: 472 nM
  TGI: 1770 nM
[3]
  GI50: 720 nM
  TGI: 1990 nM
[4]
  GI50: 344 nM
  TGI: 1500 nM
[5]
  GI50: 451 nM
  TGI: 1700 nM
[6]
  GI50: 265 nM
  TGI: 1320 nM
[7]
  GI50: 369 nM
  TGI: 1080 nM
[8]
  GI50: 1010 nM
  TGI: 2170 nM
[9]
  GI50: 779 nM
  TGI: 2100 nM
[10]
  GI50: 1040 nM
  TGI: 2390 nM
[11]
  GI50: 744 nM
  TGI: 2020 nM
[12]
  GI50: 624 nM
  TGI: 1900 nM
[13]
  GI50: 417 nM
  TGI: 1630 nM
[14]
  GI50: 357 nM
  TGI: 1290 nM
[15]
  GI50: 1080 nM
  TGI: 2320 nM
[16]
  GI50: 645 nM
  TGI: 2000 nM
[17]
  GI50: 358 nM
  TGI: 1500 nM
[18]
  GI50: 1240 nM
  TGI: 2550 nM
[19]
  GI50: 276 nM
  TGI: 1350 nM
[20]
  GI50: 441 nM
  TGI: 1540 nM
[21]
  GI50: 33.1 nM
  TGI: 1450 nM
[22]
  GI50: 938 nM
  TGI: 2130 nM
[23]
  GI50: 340 nM
  TGI: 1510 nM
[24]
  GI50: 495 nM
  TGI: 1670 nM
[25]
  GI50: 1040 nM
  TGI: 2230 nM
[26]
  GI50: 1840 nM
  TGI: 4050 nM
[27]
  GI50: 1280 nM
  TGI: 2560 nM
[28]
  GI50: 1080 nM
  TGI: 2320 nM
[29]
  GI50: 171 nM
  TGI: 310 nM
[30]
  GI50: 545 nM
  TGI: 1980 nM
[31]
  GI50: 1150 nM
  TGI: 2440 nM
[32]
  GI50: 1150 nM
  TGI: 2900 nM
[33]
  GI50: 390 nM
  TGI: 1430 nM
[34]
  GI50: 990 nM
  TGI: 2160 nM
[35]
  GI50: 1610 nM
  TGI: 3060 nM
[36]
  GI50: 1060 nM
  TGI: 2260 nM
[37]
  GI50: 1530 nM
  TGI: 2960 nM
[38]
  GI50: 1400 nM
  TGI: 3580 nM
[39]
  GI50: 1240 nM
  TGI: 2530 nM
[40]
  GI50: 1080 nM
  TGI: 3830 nM
[41]
  GI50: 329 nM
  TGI: 1240 nM
[42]
  GI50: 340 nM
  TGI: 1370 nM
[43]
  GI50: 1250 nM
  TGI: 2830 nM
[44]
  GI50: 1330 nM
  TGI: 2610 nM
[45]
  GI50: 293 nM
  TGI: 1160 nM
[46]
  GI50: 1780 nM
  TGI: 3170 nM
[47]
  GI50: 1080 nM
  TGI: 2280 nM
[48]
  GI50: 325 nM
  TGI: 1470 nM
[49]
  GI50: 442 nM
  TGI: 1590 nM
[50]
  GI50: 1480 nM
  TGI: 3120 nM
[51]
  GI50: 493 nM
  TGI: 1800 nM
[52]
  GI50: 170 nM
  TGI: 337 nM
[53]
  GI50: 476 nM
  TGI: 1640 nM
[54]
  GI50: 1700 nM
  TGI: 3100 nM
[55]
  GI50: 1250 nM
  TGI: 3220 nM
[56]
  GI50: 714 nM
  TGI: 2010 nM
[57]
  GI50: 1150 nM
  TGI: 2380 nM
[58]
  GI50: 397 nM
  TGI: 1600 nM

## CC(C)(C)c1[nH]cnc1/C=c1\[nH]c(=O)/c(=C/c2ccccc2)[nH]c1=O
[1]
  GI50: < 10 nM
  TGI: 27 nM
[2]
  GI50: < 10 nM
  TGI: 265 nM
[3]
  GI50: < 10 nM
  TGI: 16700 nM
[4]
  GI50: < 10 nM
  TGI: 13300 nM
[5]
  GI50: < 10 nM
  TGI: 25.5 nM
[6]
  GI50: < 10 nM
  TGI: 13000 nM
[7]
  GI50: < 10 nM
  TGI: < 10 nM
[8]
  GI50: < 10 nM
  TGI: < 10 nM
[9]
  GI50: < 10 nM
  TGI: 21.9 nM
[10]
  GI50: < 10 nM
  TGI: 13000 nM
[11]
  GI50: < 10 nM
  TGI: 22.1 nM
[12]
  GI50: < 10 nM
  TGI: 39.3 nM
[13]
  GI50: < 10 nM
  TGI: 22.5 nM
[14]
  GI50: < 10 nM
  TGI: < 10 nM
[15]
  GI50: < 10 nM
  TGI: 304 nM
[16]
  GI50: < 10 nM
  TGI: 2810 nM
[17]
  GI50: < 10 nM
  TGI: < 10 nM
[18]
  GI50: < 10 nM
  TGI: 12900 nM
[19]
  GI50: < 10 nM
  TGI: 10200 nM
[20]
  GI50: < 10 nM
  TGI: < 10 nM
[21]
  GI50: < 10 nM
  TGI: 1250 nM
[22]
  GI50: < 10 nM
  TGI: 30.5 nM
[23]
  GI50: < 10 nM
  TGI: < 10 nM
[24]
  GI50: < 10 nM
  TGI: 16500 nM
[25]
  GI50: < 10 nM
  TGI: 10300 nM
[26]
  GI50: 10.7 nM
  TGI: 19700 nM
[27]
  GI50: < 10 nM
  TGI: < 10 nM
[28]
  GI50: 10.3 nM
  TGI: 24.6 nM
[29]
  GI50: < 10 nM
  TGI: < 10 nM
[30]
  GI50: < 10 nM
  TGI: 26.2 nM
[31]
  GI50: < 10 nM
  TGI: < 10 nM
[32]
  GI50: < 10 nM
  TGI: 15200 nM
[33]
  GI50: < 10 nM
  TGI: < 10 nM
[34]
  GI50: < 10 nM
  TGI: < 10 nM
[35]
  GI50: < 10 nM
  TGI: < 10 nM
[36]
  GI50: < 10 nM
  TGI: < 10 nM
[37]
  GI50: < 10 nM
  TGI: 3720 nM
[38]
  GI50: 10900 nM
  TGI: 32900 nM
[39]
  GI50: < 10 nM
  TGI: 15.9 nM
[40]
  GI50: < 10 nM
  TGI: 14900 nM
[41]
  GI50: < 10 nM
  TGI: < 10 nM
[42]
  GI50: < 10 nM
  TGI: < 10 nM
[43]
  GI50: < 10 nM
  TGI: 49.1 nM
[44]
  GI50: < 10 nM
  TGI: < 10 nM
[45]
  GI50: < 10 nM
  TGI: < 10 nM
[46]
  GI50: 1750 nM
  TGI: 20400 nM
[47]
  GI50: < 10 nM
  TGI: < 10 nM
[48]
  GI50: < 10 nM
  TGI: 746 nM
[49]
  GI50: < 10 nM
  TGI: 4230 nM
[50]
  GI50: < 10 nM
  TGI: 11000 nM
[51]
  GI50: < 10 nM
  TGI: 78.3 nM
[52]
  GI50: < 10 nM
  TGI: < 10 nM
[53]
  GI50: < 10 nM
  TGI: 17500 nM
[54]
  GI50: < 10 nM
  TGI: 7150 nM
[55]
  GI50: < 10 nM
  TGI: 16400 nM
[56]
  GI50: < 10 nM
  TGI: 16.8 nM
[57]
  GI50: < 10 nM
  TGI: 18800 nM
[58]
  GI50: < 10 nM
  TGI: 14500 nM
